Data on two molecules can be found in patent US5817800A, “Inhibitors of β-glucuronidase and their use in the treatment of carcinamatosis and inflammation” (Hoechst Aktiengesellschaft, priority 1996, dated 1998).

Counter-ions that a name gives are not always drawn.

This experiment concerns the target T1, human β-glucuronidase (Homo sapiens, UniProt P08236).
T1 sequence (P08236 23-651): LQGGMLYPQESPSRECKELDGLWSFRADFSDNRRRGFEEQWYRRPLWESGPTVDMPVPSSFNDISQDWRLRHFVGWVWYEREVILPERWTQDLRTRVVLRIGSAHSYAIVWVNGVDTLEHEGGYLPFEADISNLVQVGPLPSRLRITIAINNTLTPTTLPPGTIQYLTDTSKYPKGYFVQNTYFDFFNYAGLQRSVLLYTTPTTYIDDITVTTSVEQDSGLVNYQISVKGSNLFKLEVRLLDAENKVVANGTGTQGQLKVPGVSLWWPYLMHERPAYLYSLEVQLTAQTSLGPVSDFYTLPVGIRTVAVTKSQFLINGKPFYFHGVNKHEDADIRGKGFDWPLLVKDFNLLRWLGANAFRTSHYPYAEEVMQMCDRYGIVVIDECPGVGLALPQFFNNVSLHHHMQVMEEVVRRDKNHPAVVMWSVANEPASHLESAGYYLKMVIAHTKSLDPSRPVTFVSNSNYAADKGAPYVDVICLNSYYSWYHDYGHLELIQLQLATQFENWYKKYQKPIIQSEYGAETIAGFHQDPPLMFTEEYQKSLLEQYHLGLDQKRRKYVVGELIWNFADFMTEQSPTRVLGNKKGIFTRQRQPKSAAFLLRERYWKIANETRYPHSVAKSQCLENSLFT
The experiment is described as follows: Inhibition of human β-glucuronidase (4-methylumbelliferyl-β-D-glucuronide substrate, fluorescence). The class given is biochemical. The settings on record: substrate 4-methylumbelliferyl-β-D-glucuronide; 200 mM sodium acetate, 0.1 mg/ml BSA, pH 5; 10 min, 37° C. The protocol:
The inhibition of human β-glucuronidase was determined using 4-methylumbelliferyl-β-D-glucuronide as a substrate. The test mixture contained 75 μl of 2.5 mM 4-methylumbelliferyl-β-D-glucuronide, 25 μl of enzyme (0.6 μg/ml) and 10 μl of the compound of the formula I in a concentration range from 0.0001 to 100 mM, all in 200 mM sodium acetate buffer and 0.1 mg/ml bovine serum albumin (BSA), pH 5. After a 10-minute incubation at 37° C., the mixture was stopped with 1.5 ml of 0.2 M glycine/0.2% SDS, pH 11.7. The methylumbelliferone released by the enzyme was measured in a fluorescence photometer at 360 nm excitation and 450 nm emission wavelength.
The IC50 -values were calculated from the inhibitor dilution series using the software program GraFit 2.0 (Erithacus Software Ltd.).

The term IC50 denotes the concentration needed to halve the response being measured.

Molecule `O=C(Nc1ccccc1)O/N=C1\O[C@H](C(=O)O)[C@@H](O)[C@H](O)[C@H]1O` [Example 1, (Z)-O-(D-Glucopyranuronosylidene)amino N-phenylcarbamate (sodium salt)] had an IC50 of 0.0006 mM. The same measure for `O=C(Nc1ccccc1)O/N=C1\O[C@H](P(=O)(O)O)[C@@H](O)[C@H](O)[C@H]1O` [Example 2, Sodium (5R,Z)-O-(5-C-phosphonato-D-xylopyranosylidene) amino N-phenylcarbamate]: 11 mM.
